Measured values as given in ChEMBL document CHEMBL5303304, “EUbOPEN Chemogenomics Library - IncuCyte” (2023).

How the values were obtained:
Format in all cases: toxicity, cell-based
HEK-293T = assay: Incucyte cell viability with HEK293T; conditions: human, 10 µM, compound concentration 10 uM
Fibroblast = assay: Incucyte cell viability with human fibroblast; conditions: 10 µM, compound concentration 10 uM
U2OS = assay: Incucyte cell viability with U2OS; conditions: human, 10 µM, compound concentration 10 uM
Further: unitless GR value; below 1 slowed growth and below 0 cell loss.

For `Cc1cccc(-c2nn(C(=S)Nc3ccccc3)cc2-c2ccnc3ccccc23)n1`, the “Growth Rate” value (HEK-293T; 0 h, replicate number 1) was 0.78, the “Growth Rate” value (Fibroblast; 0 h, replicate number 2) was -1 and the “Growth Rate” value (Fibroblast; 6 h, replicate number 1) was 1. The “Growth Rate” value (Fibroblast; 12 h, replicate number 1) was -1, the “Growth Rate” value (U2OS; 0 h, replicate number 2) was -0.94 and the “Growth Rate” value (U2OS; 6 h, replicate number 1) was 0.88. The “Growth Rate” value (U2OS; 6 h, replicate number 2) was 0.81, the “Growth Rate” value (U2OS; 18 h, replicate number 2) was 0.98 and the “Growth Rate” value (U2OS; 24 h, replicate number 2) was 0.88.
For `CC(C)(O)C(=O)N1CCN(c2ccc(C(F)(F)F)c(C3=C(c4c[nH]c5ccccc45)C(=O)NC3=O)c2)CC1`, the “Growth Rate” value (HEK-293T; 0 h, replicate number 1) was 0.94, the “Growth Rate” value (HEK-293T; 6 h, replicate number 1) was 0.81 and the “Growth Rate” value (HEK-293T; 6 h, replicate number 2) was 0.29. For the same compound, the “Growth Rate” value (HEK-293T; 12 h, replicate number 2) was 0.57, the “Growth Rate” value (HEK-293T; 18 h, replicate number 1) was 0.83 and the “Growth Rate” value (HEK-293T; 18 h, replicate number 2) was 0.49. The “Growth Rate” value (HEK-293T; 24 h, replicate number 1) was 0.61, the “Growth Rate” value (HEK-293T; 24 h, replicate number 2) was 0.42 and the “Growth Rate” value (Fibroblast; 0 h, replicate number 2) was -1. For the same compound, the “Growth Rate” value (Fibroblast; 6 h, replicate number 1) was -0.74, the “Growth Rate” value (Fibroblast; 12 h, replicate number 1) was -1 and the “Growth Rate” value (Fibroblast; 18 h, replicate number 2) was 0.73. The “Growth Rate” value (Fibroblast; 24 h, replicate number 2) was 0.3, the “Growth Rate” value (U2OS; 0 h, replicate number 1) was -0.61 and the “Growth Rate” value (U2OS; 12 h, replicate number 1) was 0.93. For the same compound, the “Growth Rate” value (U2OS; 18 h, replicate number 1) was 0.9, the “Growth Rate” value (U2OS; 18 h, replicate number 2) was 0.8 and the “Growth Rate” value (U2OS; 24 h, replicate number 1) was 0.76. For the same compound, the “Growth Rate” value (U2OS; 24 h, replicate number 2) was 0.83.
In the case of `CCn1c(-c2nonc2N)nc2c(C#CC(C)(C)O)ncc(OCC3CCCNC3)c21` (stereo not drawn), the “Growth Rate” value (HEK-293T; 0 h, replicate number 1) was 0.09, the “Growth Rate” value (HEK-293T; 0 h, replicate number 2) was 0.47 and the “Growth Rate” value (HEK-293T; 6 h, replicate number 1) was -0.57. For the same compound, the “Growth Rate” value (HEK-293T; 6 h, replicate number 2) was -0.49, the “Growth Rate” value (HEK-293T; 12 h, replicate number 1) was -0.65 and the “Growth Rate” value (HEK-293T; 12 h, replicate number 2) was -0.05. The “Growth Rate” value (HEK-293T; 18 h, replicate number 1) was -0.26, the “Growth Rate” value (HEK-293T; 18 h, replicate number 2) was 0.15 and the “Growth Rate” value (HEK-293T; 24 h, replicate number 1) was -0.03. The “Growth Rate” value (HEK-293T; 24 h, replicate number 2) was 0.13, the “Growth Rate” value (Fibroblast; 0 h, replicate number 1) was -0.85 and the “Growth Rate” value (Fibroblast; 6 h, replicate number 2) was -0.99. For the same compound, the “Growth Rate” value (Fibroblast; 12 h, replicate number 2) was 0.5, the “Growth Rate” value (Fibroblast; 18 h, replicate number 1) was -0.63 and the “Growth Rate” value (Fibroblast; 18 h, replicate number 2) was 0.47. The “Growth Rate” value (Fibroblast; 24 h, replicate number 1) was 0.21, the “Growth Rate” value (Fibroblast; 24 h, replicate number 2) was 0.58 and the “Growth Rate” value (U2OS; 6 h, replicate number 2) was 0.47. For the same compound, the “Growth Rate” value (U2OS; 12 h, replicate number 2) was 0.86, the “Growth Rate” value (U2OS; 18 h, replicate number 2) was 0.84 and the “Growth Rate” value (U2OS; 24 h, replicate number 1) was 0.96. The “Growth Rate” value (U2OS; 24 h, replicate number 2) was 0.9.
For `Cc1ccc(C)c(OCCCC(C)(C)C(=O)O[C@@H]2O[C@H](C(=O)O)[C@@H](O)[C@H](O)[C@H]2O)c1`, the “Growth Rate” value (HEK-293T; 0 h, replicate number 1) was 0.57, the “Growth Rate” value (HEK-293T; 6 h, replicate number 2) was 0.49 and the “Growth Rate” value (HEK-293T; 12 h, replicate number 2) was 0.64. For the same compound, the “Growth Rate” value (HEK-293T; 18 h, replicate number 2) was 0.87, the “Growth Rate” value (HEK-293T; 24 h, replicate number 2) was 0.91 and the “Growth Rate” value (Fibroblast; 0 h, replicate number 1) was 0.21. For the same compound, the “Growth Rate” value (Fibroblast; 6 h, replicate number 1) was 0.96, the “Growth Rate” value (Fibroblast; 6 h, replicate number 2) was -0.9 and the “Growth Rate” value (Fibroblast; 12 h, replicate number 1) was -1. For the same compound, the “Growth Rate” value (Fibroblast; 12 h, replicate number 2) was 0.42, the “Growth Rate” value (Fibroblast; 18 h, replicate number 1) was -0.29 and the “Growth Rate” value (Fibroblast; 24 h, replicate number 1) was 0.68. For the same compound, the “Growth Rate” value (Fibroblast; 24 h, replicate number 2) was 0.89, the “Growth Rate” value (U2OS; 0 h, replicate number 1) was 0.28 and the “Growth Rate” value (U2OS; 0 h, replicate number 2) was -0.96. The “Growth Rate” value (U2OS; 6 h, replicate number 1) was 0.4, the “Growth Rate” value (U2OS; 6 h, replicate number 2) was 0.89 and the “Growth Rate” value (U2OS; 12 h, replicate number 1) was 0.78. The “Growth Rate” value (U2OS; 12 h, replicate number 2) was 0.99, the “Growth Rate” value (U2OS; 18 h, replicate number 1) was 0.89 and the “Growth Rate” value (U2OS; 24 h, replicate number 1) was 0.9.
For `O=C(NCC1(N2CCN(c3ccccc3)CC2)CCOCC1)c1cccnc1Sc1ccccc1`, the “Growth Rate” value (HEK-293T; 0 h, replicate number 1) was 0.97, the “Growth Rate” value (HEK-293T; 0 h, replicate number 2) was -0.38 and the “Growth Rate” value (Fibroblast; 6 h, replicate number 1) was 0.02. For the same compound, the “Growth Rate” value (Fibroblast; 12 h, replicate number 1) was -1, the “Growth Rate” value (Fibroblast; 18 h, replicate number 1) was -0.49 and the “Growth Rate” value (U2OS; 0 h, replicate number 1) was 0.14. The “Growth Rate” value (U2OS; 0 h, replicate number 2) was -0.32, the “Growth Rate” value (U2OS; 6 h, replicate number 1) was 0.97 and the “Growth Rate” value (U2OS; 6 h, replicate number 2) was 0.73. For the same compound, the “Growth Rate” value (U2OS; 12 h, replicate number 1) was 0.95, the “Growth Rate” value (U2OS; 12 h, replicate number 2) was 0.86 and the “Growth Rate” value (U2OS; 18 h, replicate number 2) was 0.92. The “Growth Rate” value (U2OS; 24 h, replicate number 2) was 0.93.
`COc1cc(OC)c(NC(=O)Nc2cc(C)on2)cc1Cl` was tested, and the “Growth Rate” value (HEK-293T; 0 h, replicate number 1) was 0.72, the “Growth Rate” value (HEK-293T; 0 h, replicate number 2) was 0.7 and the “Growth Rate” value (Fibroblast; 0 h, replicate number 2) was -0.96. The “Growth Rate” value (Fibroblast; 6 h, replicate number 1) was 0.03, the “Growth Rate” value (Fibroblast; 12 h, replicate number 1) was -1 and the “Growth Rate” value (U2OS; 6 h, replicate number 2) was 0.98. The “Growth Rate” value (U2OS; 18 h, replicate number 1) was 0.96 and the “Growth Rate” value (U2OS; 18 h, replicate number 2) was 0.82.
`O=C(NCc1cccc(O)c1)Nc1nc(-c2ccncc2)cs1` was tested, and the “Growth Rate” value (HEK-293T; 0 h, replicate number 1) was -0.16, the “Growth Rate” value (HEK-293T; 0 h, replicate number 2) was -0.82 and the “Growth Rate” value (Fibroblast; 0 h, replicate number 2) was -0.55. For the same compound, the “Growth Rate” value (Fibroblast; 6 h, replicate number 1) was -1, the “Growth Rate” value (U2OS; 0 h, replicate number 2) was -0.94 and the “Growth Rate” value (U2OS; 24 h, replicate number 1) was 0.88. The “Growth Rate” value (U2OS; 24 h, replicate number 2) was 1.
`N#Cc1ccnc(Nc2cc(C3CCN(C4COC4)CC3)cc(N3CCC(F)(F)C3)n2)c1` was tested, and the “Growth Rate” value (HEK-293T; 0 h, replicate number 1) was -0.35, the “Growth Rate” value (HEK-293T; 6 h, replicate number 1) was 0.58 and the “Growth Rate” value (HEK-293T; 6 h, replicate number 2) was -0.9. The “Growth Rate” value (HEK-293T; 12 h, replicate number 1) was 0.85, the “Growth Rate” value (HEK-293T; 12 h, replicate number 2) was -0.54 and the “Growth Rate” value (HEK-293T; 18 h, replicate number 1) was 0.46. For the same compound, the “Growth Rate” value (HEK-293T; 18 h, replicate number 2) was -0.37, the “Growth Rate” value (HEK-293T; 24 h, replicate number 1) was 0.44 and the “Growth Rate” value (HEK-293T; 24 h, replicate number 2) was -0.26. The “Growth Rate” value (Fibroblast; 6 h, replicate number 2) was -1, the “Growth Rate” value (Fibroblast; 12 h, replicate number 2) was -0.47 and the “Growth Rate” value (Fibroblast; 18 h, replicate number 1) was -0.85. The “Growth Rate” value (Fibroblast; 18 h, replicate number 2) was 0.21, the “Growth Rate” value (Fibroblast; 24 h, replicate number 1) was -0.29 and the “Growth Rate” value (Fibroblast; 24 h, replicate number 2) was 0.43. For the same compound, the “Growth Rate” value (U2OS; 0 h, replicate number 2) was -1, the “Growth Rate” value (U2OS; 6 h, replicate number 1) was 0.88 and the “Growth Rate” value (U2OS; 6 h, replicate number 2) was 0.29. For the same compound, the “Growth Rate” value (U2OS; 12 h, replicate number 1) was 0.44, the “Growth Rate” value (U2OS; 12 h, replicate number 2) was 0.38 and the “Growth Rate” value (U2OS; 18 h, replicate number 1) was 0.22. The “Growth Rate” value (U2OS; 18 h, replicate number 2) was 0.46, the “Growth Rate” value (U2OS; 24 h, replicate number 1) was 0.18 and the “Growth Rate” value (U2OS; 24 h, replicate number 2) was 0.44.
